Assay results reported in paper PMC6571965, “Importance of the Proximity and Orientation of Ligand-Linkage to the Design of Cinnamate-GW9662 Hybrid Compounds as Covalent PPARγ Agonists” (Molecules, 2019).
Entries after “also recorded” stand apart in the source; their conditions may differ. Read-outs that look alike come from different tables or passages of the source.

How the values were obtained:
[1] = biological target: T1, recombinant PPARγ LBD (Cys285) (Homo sapiens, UniProt P37231); assay: Rhodamine-maleimide assay for covalent modification of Cys285; assay type: binding; conditions: PPARγ LBD 2 µM, 30 min incubation at room temperature
T1 construct: recombinant PPARγ LBD (2 µM) was mixed with various ligands; gift of Dr. Takuji Oyama (Yamanashi University)
T1 sequence (P37231 238-503 limits assumed): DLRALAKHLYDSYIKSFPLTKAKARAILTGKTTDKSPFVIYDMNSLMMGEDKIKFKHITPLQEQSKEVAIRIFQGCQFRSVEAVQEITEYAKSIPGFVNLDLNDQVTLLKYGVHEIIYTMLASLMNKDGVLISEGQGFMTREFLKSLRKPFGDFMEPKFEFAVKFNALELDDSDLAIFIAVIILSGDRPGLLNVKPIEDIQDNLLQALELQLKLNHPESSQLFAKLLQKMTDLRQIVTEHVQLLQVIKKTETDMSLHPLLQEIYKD
Text: (§1) To assess the interactions between the receptor and the synthesized compounds, we initially validated the formation of a covalent bond with Cys285 by performing a rhodamine-maleimide assay. This assay can detect the presence of a covalent modification of Cys285 in the PPARγ LBD because it has only one cysteine residue in its sequences. […] To further confirm the covalent bonding of the synthesized compounds, we conducted proteolytic mapping studies via mass spectroscopy using 4a as a representative compound and 4b as a negative control. The complexes between recombinant PPARγ LBD and the test compounds were trypsinized and subjected to MALDI-TOF MS. Covalent binding of 4a (mass of 466.1 Da) to the PPARγ LBD is assumed to result in a mass change of 431.1 Da for the modified tryptic peptide. By comparison of the tryptic digests of PPARγ, with and without 4a, a candidate peptide containing the attachment site for 4a ([…], m/z 499.7492 Da) was detected by its mass shift to m/z 714.8080 Da (detected as double charged; Figure 3B).
Rhodamine-Maleimide assay was performed as previously described. Briefly, recombinant PPARγ LBD (2 µM) was mixed with various ligands at the indicated concentrations in 20 mM Tris-HCl, pH8.0, 150 mM NaCl, and 1 mM tris(2-carboxylethyl)phosphine (TCEP). The mixture was incubated for 30 min at room temperature. SDS was added to the reaction mixture to a final concentration of 0.5%, followed by rhodamine red C2 maleimide (Life Technologies, Carlsbad, CA, USA) at a final concentration of 1 mM. After incubation at room temperature for 30 min, samples were treated with SDS-PAGE sample buffer containing β-mercaptoethanol for 30 min at 55 °C and were separated by SDS-PAGE. Fluorescent signals were visualized using the LAS1000 plus image analyzer (Fujifilm, Tokyo, Japan).
. (B), (C) Detection of covalent binding of 4a to Cys285 in the PPARγ LBD by ESI-MS/MS analysis. Fragmentation pattern of peptide […] was obtained from the trypsin digest. The calculated y- and b-ions of this peptide with observed ions underlined and the native or modified peptides detected in chromatogram are shown.

human PPARγ LBD [2] = biological target: T2, human PPARγ LBD (Homo sapiens, UniProt P37231); assay: PPARγ reporter assay (GAL4 DNA-binding domain/PPARγ LBD chimera, pUAS-tk-Luc luciferase) in HepG2 cells; assay type: cell-based; set-up: expressed in transfected cells; host or cells: HepG2; conditions: for PPARγ agonist activity (in words) / EC50: HepG2 cells, pGal4-human PPARγLBD, 6 h treatment; for EC50: mean ± SD, read-out: EC50 (PPARγ agonist activity); for fold more potent than previously synthesized compound 3: PPARγ agonist activity, compared with 3
T2 sequence (P37231 238-503 limits assumed): T1 sequence (P37231 238-503 limits assumed)
Method: PPARγ agonist activity was assessed by expression of a GAL4 DNA-binding domain/PPARγ LBD chimera protein using the plasmid pGAL4- PPARγ LBD and the luciferase reporter plasmid pUAS-tk-Luc containing the target sequence of GAL4 [20]. […] This supports our hypothesis that close proximity between the two fragments contributes to the improvement of binding affinity.
The PPARγ reporter assay was carried out as previously reported with slight modifications. pGal4-human PPARγLBD, pUAS-tk-luc and Renilla luciferase transfection control vector (pGL4.74, Promega, Madison, WI, USA) were transfected into HepG2 cells using Hily-max (Dojindo, Kumamoto, Japan) and PPARγ agonist activity was determined from the luciferase activity using the Dual-Luciferase Reporter Assay System (Promega) according to the manufacturer’s protocol.
Figure 2 Transactivation potentials of PPARγ by 4a, b, c, d, e, and 16. The luciferase reporter assay was performed in HepG2 cells transiently cotransfected with pGal4-humanPPARγLBD plasmid, pUAS-tk-Luc reporter, and pGL4.74[hRluc/TK] (Promega). Firefly luciferase activities were normalized to Renilla luciferase activities. Vehicle control data are denoted as 1. […] All the results are presented as the mean ± SD (n = 3) of three independent experiments. * p < 0.001, compared with vehicle control.

[3] = biological target: T1, recombinant PPARγ LBD (Cys285); assay: Proteolytic mapping by MS/MS of ligand modification of PPARγ LBD; assay type: binding; conditions: PPARγ LBD 20 µM, ligand 40 µM, 30 min, trypsin digest
Text: as §1
LC-MS/MS detection was performed as previously described. Briefly, purified recombinant PPARγ LBD (20 µM) was incubated with ligands (40 µM) in 20 mM Tris-HCl, pH8.0, 150 mM NaCl, and 1 mM TCEP for 30 min. […]
. […] The calculated y- and b-ions of this peptide with observed ions underlined and the native or modified peptides detected in chromatogram are shown.

human PPARγ LBD [4] = biological target: T2, human PPARγ LBD; assay: Luciferase reporter assay after ligand withdrawal in HepG2 cells; conditions: 6 h treatment (troglitazone 10 μM; 4a, 4c 100 nM), washed, 24 h after withdrawal
Text: (§2) We first examined the relationship between covalent binding to the Cys285 residue and the agonist activity by a luciferase reporter gene assay using PPARγ mutants where the cysteine was substituted to an alanine (C285A). […] To examine this idea, we monitored the levels of luciferase activity upon withdrawal of the synthesized agonists.

[5] = biological target: T3, human PPARγ LBD C285A mutant (Homo sapiens, UniProt P37231, C313A); assay: Luciferase reporter gene assay with C285A mutant of pGal4-humanPPARγLBD in HepG2 cells; conditions: 6 h, troglitazone 10 μM
T3 sequence (P37231 232-505 C313A): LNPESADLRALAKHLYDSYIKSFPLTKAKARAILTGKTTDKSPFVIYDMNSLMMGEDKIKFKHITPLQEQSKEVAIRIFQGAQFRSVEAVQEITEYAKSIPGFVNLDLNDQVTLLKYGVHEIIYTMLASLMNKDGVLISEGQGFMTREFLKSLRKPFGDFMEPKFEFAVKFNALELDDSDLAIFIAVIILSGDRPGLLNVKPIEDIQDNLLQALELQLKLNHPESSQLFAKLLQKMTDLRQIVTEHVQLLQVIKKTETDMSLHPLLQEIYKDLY
Text: as §2

human PPARγ LBD [6] = biological target: T2, human PPARγ LBD; set-up: expressed in transfected cells; host or cells: HepG2; method as in PMID 26414848; conditions: previously synthesized compound; read-out: EC50 value (partial agonistic activity); cited from earlier work

Row | SMILES | fluorescence of rhodamine-labeled PPARγ LBD (covalent bond with Cys285) [1] | PPARγ agonist activity (in words) (human PPARγ LBD [2]) | EC50 (human PPARγ LBD [2]) [nM] | other results
1 | CCOC(=O)/C=C/c1ccc(OCCc2ccc(NC(=O)c3cc([N+](=O)[O-])ccc3Cl)cc2)cc1 [Compound 16, (E)-Ethyl 3-(4-{2-[4-(2-chloro-5-nitrobenzamido)phenyl]ethoxy}phenyl)acrylate] | showed the decrease of fluorescence | disappearance of activity; also recorded: exhibited no agonistic activity | – | –
2 | CCOC(=O)/C=C/c1ccc(Oc2cccc(NC(=O)c3cccc([N+](=O)[O-])c3)c2)cc1 [Compound 4b, (E)-Ethyl 3-{4-[3-(3-nitrobenzamido)phenoxy]phenyl}acrylate] | decrease of fluorescence was not observed | had no agonist activity | – | covalent adduct with Cys285 detected by mass shift of tryptic peptide IFQGCQFR [3]: these mass shifts were not exhibited
3 | CCOC(=O)/C=C/c1ccc(Oc2ccccc2NC(=O)c2cc([N+](=O)[O-])ccc2Cl)cc1 [Compound 4c, (E)-Ethyl 3-{4-[2-(2-chloro-5-nitrobenzamido)phenoxy]phenyl}acrylate] | decrease of labeled PPARγ LBD was also found | – | 4.11 ± 0.13 | luciferase transcription activity after withdrawal of ligand (human PPARγ LBD [4]): sustained transcription activity 24 h after withdrawal; transactivation in the C285A mutant [5]: did not show the transactivation; fold more potent than previously synthesized compound 3 (human PPARγ LBD [2]): about 3 fold
4 | CCOC(=O)CCc1ccc(Oc2cccc(NC(=O)c3cc([N+](=O)[O-])ccc3Cl)c2)cc1 [Compound 4e, Ethyl 3-{4-[3-(2-chloro-5-nitrobenzamido)phenoxy]phenyl}propanoate] | – | – | 2.54 ± 1.3 | –
5 | CCOC(=O)/C=C/c1ccc(OCCc2cccc(NC(=O)c3cc([N+](=O)[O-])ccc3Cl)c2)cc1 [Compound 3] | – | – | – | EC50 (human PPARγ LBD [6]): 14 nM
6 | CCOC(=O)/C=C/c1ccc(Oc2cccc(NC(=O)c3cc([N+](=O)[O-])ccc3Cl)c2)cc1 [Compound 4a, (E)-Ethyl 3-{4-[3-(2-chloro-5-nitrobenzamido)phenoxy]phenyl}acrylate] | decrease of labeled PPARγ LBD was also found | – | 5.13 ± 0.45 | luciferase transcription activity after withdrawal of ligand (human PPARγ LBD [4]): sustained transcription activity 24 h after withdrawal; transactivation in the C285A mutant [5]: did not show the transactivation; fold more potent than previously synthesized compound 3 (human PPARγ LBD [2]): about 3 fold; covalent adduct with Cys285 detected by mass shift of tryptic peptide IFQGCQFR [3]: identified as the Cys285 residue
7 | O=C(Nc1ccccc1)c1cc([N+](=O)[O-])ccc1Cl [GW9662] | decreased | – | – | –
8 | CCOC(=O)/C=C/c1ccc(Oc2ccc(NC(=O)c3cc([N+](=O)[O-])ccc3Cl)cc2)cc1 [Compound 4d, (E)-Ethyl 3-{4-[4-(2-chloro-5-nitrobenzamido)phenoxy]phenyl}acrylate] | showed the decrease of fluorescence | completely abolished; also recorded: exhibited no agonistic activity | – | –
